Laboratory results: US4477664A, “Novel 1-(4-piperidiniobenzyl)-2,3-dioxopiperazine derivatives or acid addition salts thereof” (Toyama Chemical Co., Ltd., priority 1979, dated 1984)
Converted amounts (≈) assume the structure as drawn.

Columns and labels:
HeLa S3 cells = assay: MIC value against HeLa S3 cells (microplate method); format: cell-based; conditions: Homo sapiens, 96 h, 2×10^4 cells/ml, 4 days, Giemsa staining
Excerpt: (§1) a. MIC value against HeLa S3 cells and Ehrlich cells (microplate method) Number of cells: 2×10^4 cells/ml Culture medium: Eagle's MEM+20% calf embryonic serum Culture time: 4 days Judgement: Giemsa staining

Ehrlich cells = assay: MIC value against Ehrlich cells (microplate method); format: cell-based; conditions: 96 h, 2×10^4 cells/ml, 4 days, Giemsa staining
Excerpt: as §1

[1] = test system: Ehrlich ascites carcinoma cells; assay: Effect on Ehrlich carcinoma (ii): subcutaneous inoculation at inguinal region, mean tumor weight; format: in vivo, ICR-strain mice; conditions: intraperitoneally, once a day for 5 days, judgement day 13
Description: (ii) Ehrlich ascites carcinoma cells (4×10^6 cells/head) were inoculated subcutaneously at the inguinal region into ICR-strain mice (female, 6 to 7 weeks old, each group consisting of 5 or 4 mice), and after 24 hours, the intraperitaneal or oral administration of a test drug was started and effected once a day for 5 days. The effect thereof was judged from the mean weight of tumor on the 13th or 15th day, respectively.
The test drug was used in the form of a solution or suspension in a saline solution or a 0.3% carboxymethyl cellulose-containing saline solution. [formula]

[2] = test system: Ehrlich ascites carcinoma cells; assay: Effect on Ehrlich carcinoma (i): intraperitoneal inoculation, mean survival days; format: in vivo, ICR-strain mice; conditions: Mus musculus, ip, 168 h, once a day for 7 days, read-out: T/C (mean survival days)
Description: (i) Ehrlich ascites carcinoma cells (1×10^6 cells/head) were inoculated intraperitoneally into ICR-strain mice (female, 6 to 7 weeks old, each group consisting of 5 or 4 mice), and after 24 hours, the […] The effect thereof was judged from the mean survival days.
The test drugs were used in the form of a solution or suspension in a saline solution or a 0.3% carboxymethyl cellulose-containing saline solution. [formula]

Acute toxicity = conditions: mouse, in vivo, ip
Excerpt: The test drugs were used in the form of a solution or suspension in a saline solution or a 0.3% carboxymethyl cellulose-containing saline solution.

[3] = test system: Sarcoma 180 ascites cells; assay: Effect on Sarcoma 180 carcinoma: intraperitoneal inoculation, mean survival days; format: in vivo, ICR-strain mice; conditions: 200 mg/kg, once a day for 7 days
Description: Sarcoma 180 ascites cells (1×10^6 cells/head) were inocualted intraperitoneally into ICR-strain mice (female, 6 weeks old, each group consisting of 4 or 5 mice), and after 24 hours, the intraperitoneal administration of a test drug was started, and effected once a day for 7 days. The effect thereof was judged from the mean survival days. The test drug was used in the form of a solution or suspension in a saline solution or a 0.3% carboxymethyl cellulose-containing saline solution. [formula]

[4] = intraperitoneal, once, male mice, observed for 7 days

SMILES	MIC (HeLa S3 cells)	MIC (Ehrlich cells)	further results
O=C1C(=O)N(Cc2cnccn2)CCN1Cc1ccc(Nc2ncccn2)cc1 [Compound 9]	1.56 to 3.13 µg/mL (≈ 4.01 to 8.04 µM)	6.25 µg/mL (≈ 16 µM)	–
CCCCCCN1CCN(Cc2ccc(Nc3ccncc3)cc2)C(=O)C1=O [Compound 5]	3.13 µg/mL (≈ 8.23 µM)	3.13 µg/mL (≈ 8.23 µM)	–
CCCCCCN1CCN(Cc2ccc(N(CC)CC)cc2)C(=O)C1=O [Compound 26]	3.13 µg/mL (≈ 8.71 µM)	3.13 µg/mL (≈ 8.71 µM)	T/C (mean tumor weight) ([1]; 6.25 mg/kg): 64%; T/C (mean tumor weight) ([1]; 12.5 mg/kg): 67%; T/C (mean tumor weight) ([1]; 25 mg/kg): 61%; response vs control in vivo at 40 mg/kg [2]: 157%
O=C1C(=O)N(CC2CCCCC2)CCN1Cc1ccc(Nc2ncccn2)cc1 [Compound 11]	1.56 µg/mL (≈ 3.96 µM)	1.56 µg/mL (≈ 3.96 µM)	–
CCCCCCN1CCN(Cc2ccc(NC(=O)CCl)cc2)C(=O)C1=O [Compound 34]	0.39 µg/mL (≈ 1.03 µM)	0.39 µg/mL (≈ 1.03 µM)	response vs control in vivo at 100 mg/kg [2]: > 142%; response vs control in vivo at 200 mg/kg [2]: 157%
Nc1cnc(Nc2ccc(CN3CCN(Cc4ccccc4)C(=O)C3=O)cc2)nc1 [Compound 45]	0.05 µg/mL (≈ 0.124 µM)	0.05 µg/mL (≈ 0.124 µM)	–
Cc1ccc(Nc2ccc(CN3CCN(Cc4ccccc4)C(=O)C3=O)cc2)nc1 [Compound 25]	0.39 µg/mL (≈ 0.974 µM)	0.39 µg/mL (≈ 0.974 µM)	–
Nc1cccc(CN2CCN(Cc3ccc(Nc4ncccn4)cc3)C(=O)C2=O)n1 [Compound 10]	1.56 to 3.13 µg/mL (≈ 3.87 to 7.76 µM)	12.5 µg/mL (≈ 31 µM)	–
CCCCCCN1CCN(Cc2ccc(Nc3ccncn3)cc2)C(=O)C1=O [Compound 19]	1.56 µg/mL (≈ 4.09 µM)	1.56 µg/mL (≈ 4.09 µM)	LD50 at 168 h (Acute toxicity; [4]): > 500 mg/kg
CCCCCCN1CCN(Cc2ccc(N(CC)CC)c(Cl)c2)C(=O)C1=O [Compound 28]	12.5 µg/mL (≈ 31.7 µM)	12.5 µg/mL (≈ 31.7 µM)	response vs control in vivo at 40 mg/kg [2]: > 173%; response vs control in vivo at 100 mg/kg [2]: 165%
O=C1C(=O)N(c2ccccc2)CCN1Cc1ccc(Nc2ncccn2)cc1 [Compound 12]	0.78 µg/mL (≈ 2.09 µM)	0.78 µg/mL (≈ 2.09 µM)	LD50 at 168 h (Acute toxicity; [4]): > 500 mg/kg
CCCCCCN1CCN(Cc2ccc(NCC)cc2)C(=O)C1=O [Compound 32]	6.25 µg/mL (≈ 18.9 µM)	6.25 µg/mL (≈ 18.9 µM)	–
CCCCCCN1CCN(Cc2ccc(NCc3ccncc3)cc2)C(=O)C1=O [Compound 35]	6.25 µg/mL (≈ 15.8 µM)	6.25 µg/mL (≈ 15.8 µM)	response vs control in vivo at 50 mg/kg ([2]; 50 mg/kg): 146%; response vs control in vivo at 100 mg/kg [2]: > 187%
O=C1C(=O)N(c2cnccn2)CCN1Cc1ccc(Nc2ncccn2)cc1 [Compound 8]	0.78 µg/mL (≈ 2.08 µM)	0.39 µg/mL (≈ 1.04 µM)	–
CCN(CC)c1ccc(CN2CCN(Cc3cccnc3)C(=O)C2=O)cc1 [Compound 39]	25 µg/mL (≈ 68.2 µM)	25 µg/mL (≈ 68.2 µM)	response vs control in vivo at 100 mg/kg [2]: > 164%
CCN(CC)c1ccc(CNCCN2CCN(Cc3ccc(N(CC)CC)cc3)C(=O)C2=O)cc1 [Compound 40]	12.5 µg/mL (≈ 26.1 µM)	12.5 µg/mL (≈ 26.1 µM)	response vs control in vivo at 30 mg/kg ([2]; 30 mg/kg): 154%
O=C1C(=O)N(Cc2ccc(Nc3ncccn3)cc2)CCN1Cc1ccc(Cl)cc1 [Compound 16]	1.56 µg/mL (≈ 3.7 µM)	1.56 µg/mL (≈ 3.7 µM)	–
O=C1C(=O)N(Cc2ccc(Nc3ccc([N+](=O)[O-])cn3)cc2)CCN1Cc1ccccc1 [Compound 3]	3.13 to 6.25 µg/mL (≈ 7.25 to 14.5 µM)	6.25 µg/mL (≈ 14.5 µM)	–
CCCCCCN1CCN(Cc2ccc(Nc3ccccn3)cc2)C(=O)C1=O [Compound 1]	0.2 µg/mL (≈ 0.526 µM)	0.2 µg/mL (≈ 0.526 µM)	response vs control in vivo at 200 mg/kg [2]: > 221%; T/C (mean survival days) [3]: > 151.6%; Survival Ratio in Days Shown in Parenthesis ([3]; 35 days): 2/4; LD50 at 168 h (Acute toxicity): > 500 mg/kg
CCN(CC)c1ccc(CN2CCN(Cc3ccccn3)C(=O)C2=O)cc1 [Compound 38]	25 µg/mL (≈ 68.2 µM)	25 µg/mL (≈ 68.2 µM)	response vs control in vivo at 100 mg/kg [2]: 160%
